In the NIST ThermoML archive (doi:10.1016/j.fluid.2006.10.023):
Values joined by “and” are separate entries in the source; they are usually repeats but may differ in a detail not shown here. Equal entries are not always repeated. Numbers after ± are expanded uncertainties.

Details: Liquid, Closed cell (Static) method

Compound | vapor or sublimation pressure (253.15 K) | vapor or sublimation pressure (273.15 K) | vapor or sublimation pressure (293.15 K)
FCC(F)(F)F [1,1,1,2-tetrafluoroethane] | 133.5 ± 2.1 kPa | 291.8 ± 2.2 kPa | 572.1 ± 2.6 kPa
C1CC1 [cyclopropane] | 171.3 ± 2.1 kPa and 171.2 ± 2.1 kPa | 344.1 ± 2.3 kPa and 344.7 ± 2.3 kPa | 631.7 ± 2.8 kPa and 632.2 ± 2.8 kPa
FC(F)C(F)(F)F [pentafluoroethane] | 337.3 ± 2.3 kPa | 672.1 ± 2.9 kPa | 1204.7 ± 4.1 kPa
